IC50 data for 14 molecules are collected here from patent US7517902B2, “Substituted indazoles, compositions containing the same, and the preparation and use thereof” (Aventis Pharma S.A., priority 2004, dated 2009).

The structures appear in SMILES notation. Where a name gives a salt, the structure may show the parent alone.

What all share (format): biochemical
The target of test [1] is T1, human Tie2 (Homo sapiens, UniProt Q02763).
T1 construct: amino acids of the intracellular domain 776-1124; made in house
T1 sequence (Q02763 776-1124): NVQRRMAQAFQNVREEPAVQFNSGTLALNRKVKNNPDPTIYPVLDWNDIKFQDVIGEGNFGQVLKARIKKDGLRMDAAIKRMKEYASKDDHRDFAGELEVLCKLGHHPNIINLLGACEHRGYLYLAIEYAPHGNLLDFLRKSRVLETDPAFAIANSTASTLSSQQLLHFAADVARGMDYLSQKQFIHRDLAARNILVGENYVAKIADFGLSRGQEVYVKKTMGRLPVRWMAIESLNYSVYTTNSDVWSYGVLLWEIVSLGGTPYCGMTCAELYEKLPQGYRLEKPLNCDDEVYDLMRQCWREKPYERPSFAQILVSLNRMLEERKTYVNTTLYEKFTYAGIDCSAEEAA
Kind of test: Tie2 assay of PLC phosphorylation (FlashPlate). The note with it: read-out: IC 50 TIE2. The protocol: The coding sequence of human Tie2, corresponding to the amino acids of the intracellular domain 776-1124, was generated by PCR, using the cDNA isolated from human placenta as a model. This sequence was introduced into a baculovirus expression vector pFastBacGT in the form of a GST fusion protein.
The inhibitory effect of the molecules is determined in an assay of PLC phosphorylation by Tie2 in the presence of GST-Tie2 purified to approximately 80% homogeneity. The substrate is composed of the SH2-SH3 fragments of PLC expressed in the form of a GST fusion protein.
The kinase activity of Tie2 is measured in a 20 mM MOPS buffer, pH 7.2, containing 10 mM MgCl2, 10 mM MnCl2, 1 mM DTT, 10 mM of glycerol-phosphate. In a 96-well FlashPlate plate, kept on ice, a reaction mixture is deposited which is composed of 70 μl of kinase buffer containing 100 ng of GST-Tie2 enzyme per well. Subsequently 10 μl of the test molecule diluted to a concentration of 10% maximum in DMvSO are added. For a given concentration, each measurement is carried out in quadruplicate. The reaction is initiated by adding 20 μl of solution containing 2 μg of GST-PLC, 2 μM of cold ATP and 1 μCi of ^33P[ATP]. After 1 hour of incubation at 37° C., the reaction is terminated by adding 1 volume (100 μl) of 200 mM EDTA. Following removal of the incubation buffer, the wells are washed three times with 300 μl of PBS. The radioactivity is measured on a Wallac MicroBeta 1450.
The inhibition of Tie2 activity is calculated and expressed as a percentage inhibition relative to the control activity determined in the absence of compound.

Test [2] addresses T2, human KDR enzyme (Homo sapiens, UniProt P35968).
T2 construct: The cytoplasmic domain of the human KDR enzyme was cloned in the form of a GST fusion; GST; made in house; host or cells: SF21 insect cells (baculovirus, pFastBac)
Kind of test: KDR substrate phosphorylation assay (scintillation, 96-well plate). The protocol:
The inhibitory effect of the compounds is determined in an assay of substrate phosphorylation by the KDR enzyme in vitro using a scintillation technique (96-well plate, NEN).
The cytoplasmic domain of the human KDR enzyme was cloned in the form of a GST fusion into the baculovirus expression vector pFastBac. The protein was expressed in SF21 cells and purified to approximately 60% homogeneity.
The KDR kinase activity is measured in 20 mM MOPS, 10 mM MgCl2, 10 mM MnCl2, 1 mM DTT, 2.5 mM EGTA, 10 mM β-glycerophosphate, pH=7.2, in the presence of 10 mM MgCl2, 100 μM Na3VO4, 1 mM NaF. 10 μl of the compound are added to 70 μl of kinase buffer, containing 100 ng of KDR enzyme at 4° C. The reaction is triggered by adding 20 μl of solution containing 2 μg of substrate (SH2-SH3 fragment of PLCγ expressed in the form of a GST fusion protein), 2 μCi γ^33P[ATP] and 2 μM cold ATP. After 1 hour of incubation at 37° C., the reaction is stopped by adding 1 volume (100 μl) of 200 mM EDTA. The incubation buffer is withdrawn and the wells are washed three times with 300 μl of PBS. The radioactivity is measured in each well using a Top Count NXT radioactivity counter (Packard).
The background noise is determined by measuring the radioactivity in four different wells containing the radioactive ATP and the substrate alone.
A control for total activity is measured in four different wells containing all of the reagents (γ^33P-[ATP], KDR and PLCγ substrate), but in the absence of compound.
The inhibition of KDR activity with the compound of the invention is expressed in percentage inhibition of the control activity determined in the absence of compound.
The compound SU5614 (Calbiochem) (1 μM) is included in each plate as an inhibition control.

Test [3] addresses T3, Aurora2 (Homo sapiens, UniProt O14965).
T3 construct: Aurora 2: whole recombinant protein comprising an N-terminal histidine tail; His tag (histidine tail) (N); made in house; host or cells: E. coli
T3 sequence (O14965 1-403): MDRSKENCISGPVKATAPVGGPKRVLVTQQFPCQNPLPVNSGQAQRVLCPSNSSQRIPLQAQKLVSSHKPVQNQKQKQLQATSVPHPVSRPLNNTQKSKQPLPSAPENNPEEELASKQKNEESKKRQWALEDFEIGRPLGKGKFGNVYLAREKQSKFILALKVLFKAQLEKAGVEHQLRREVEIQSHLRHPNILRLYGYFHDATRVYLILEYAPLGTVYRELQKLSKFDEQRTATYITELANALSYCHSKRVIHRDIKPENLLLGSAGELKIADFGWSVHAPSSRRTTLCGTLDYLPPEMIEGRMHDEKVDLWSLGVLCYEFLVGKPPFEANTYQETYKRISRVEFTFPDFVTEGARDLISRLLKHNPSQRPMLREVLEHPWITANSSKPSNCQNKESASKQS
Briefly: Aurora2 enzyme assay, NuMA substrate phosphorylation (Flashplate). The note with it: read-out: IC 50 Aurora2. The protocol:
The inhibitory effect of compounds with respect to the kinases Aurora1 and Aurora2 is determined by an enzyme assay employing radioactivity detection.
The kinase activity of Aurora 1 and Aurora 2 is evaluated by the phosphorylation of the substrate Numa-histidine in the presence of radiolabeled ATP ([^33P]ATP), using 96-well Flashplate plates in which nickel chelate is fixed to the surface of the microplate. The amount of ^33P phosphate incorporated in the NuMA substrate is proportional to the activity of the enzyme Aurora1 or Aurora2.
The proteins are produced in the protein production laboratory of the SanofiAventis group.
Aurora 2: whole recombinant protein comprising an N-terminal histidine tail, expressed in E. coli and purified to more than 82%.
NuMA (nuclear protein that associates with the mitotic apparatus) fragment of 424 amino acids, expressed in E. coli, whose N-terminal end has been labeled with histidine and used as a substrate for the two Aurora enzymes.
The microplates used are 96-well Flash-Plate plates with nickel chelate (Perkin Elmer, model SMP107).
The products for evaluation are incubated in a reaction volume of 100 μL per well in the presence of 10 nM of Aurora 1 or Aurora 2, 500 nM of NuMA substrate in a buffer composed of 50 mM of Tris/HCl (pH 7.5), 50 mM NaCl, 5 mM MgCl2 (Aurora-B) or 10 mM MgCl2 (Aurora-A) and 1 mM of DTT, at 37° C.
In each well, 80 μL of the enzyme/substrate incubation buffer are distributed, followed by 10 μL of the product to be evaluated, in variable concentrations. The reaction is initiated by adding 1 μM of final ATP containing 0.2 μCi of [^33P]ATP (10 μL). After 30 minutes of incubation, the reaction is terminated by simply removing the reaction buffer and each well is washed twice with 300 μl of the Tris/HCl buffer. The radioactivity is then measured in each well by means of a scintillation apparatus, Packard, Top count model.
The control enzyme activity of Aurora is expressed by the number of counts per minute obtained within 30 minutes, after deduction of the background noise (reaction mixture not containing the enzyme). The evaluation of the various test products is expressed in percentage inhibition of the Aurora activity relative to the control.

T2 sequence (P35968 786-1356 limits assumed): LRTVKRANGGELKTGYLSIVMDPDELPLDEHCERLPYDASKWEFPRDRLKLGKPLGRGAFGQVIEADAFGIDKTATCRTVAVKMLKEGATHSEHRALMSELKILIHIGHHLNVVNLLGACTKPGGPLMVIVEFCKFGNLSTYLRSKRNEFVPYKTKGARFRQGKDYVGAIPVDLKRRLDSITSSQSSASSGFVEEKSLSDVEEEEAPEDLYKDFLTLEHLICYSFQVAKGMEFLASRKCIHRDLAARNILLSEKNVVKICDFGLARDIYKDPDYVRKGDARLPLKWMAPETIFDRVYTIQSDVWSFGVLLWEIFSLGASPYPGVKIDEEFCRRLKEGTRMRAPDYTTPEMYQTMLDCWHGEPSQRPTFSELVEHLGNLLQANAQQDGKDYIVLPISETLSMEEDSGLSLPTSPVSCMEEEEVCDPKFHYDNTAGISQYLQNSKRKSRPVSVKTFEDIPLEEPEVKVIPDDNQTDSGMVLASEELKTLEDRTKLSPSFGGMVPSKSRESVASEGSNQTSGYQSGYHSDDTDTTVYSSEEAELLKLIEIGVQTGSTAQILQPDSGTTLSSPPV

For the molecule `Nc1n[nH]c2cc(-c3ccc(NC(=O)Nc4cc(C(F)(F)F)ccc4F)cc3)ccc12` [Example 1, 1-[4-(3-Amino-1H-indazol-6-yl)phenyl]-3-(2-fluoro-5-trifluoromethylphenyl)urea hydrochloride], the IC50 in test [1] turned out to be 1780 nM; in test [2], 33 nM; in test [3], 113 nM.

Turning to `Nc1ccc(-c2ccc3c(NC(=O)c4ccsc4)n[nH]c3c2F)cc1` [Example 4, 6-(4-Aminophenyl)-7-fluoro-3-[(thiophen-3-yl)carbonylamino]-1H-indazole hydrochloride], the IC50 in test [1] worked out at 799 nM; in test [2], 164 nM; in test [3], 465 nM.

For the molecule `O=C(Nc1ccc(-c2ccc3c(NC(=O)c4ccsc4)n[nH]c3c2F)cc1)Nc1cc(C(F)(F)F)ccc1F` [Example 6, 1-(4-{7-Fluoro-3-[(thiophen-3-yl)carbonylamino]-1H-indazol-6-yl}phenyl)-3-(2-fluoro-5-trifluoromethylphenyl)urea], the IC50 in test [1] was 9 nM; in test [2] it was 8 nM; in test [3], 36 nM.

As to `Nc1n[nH]c2c(F)c(-c3ccc(NC(=O)Nc4cc(C(F)(F)F)ccc4F)cc3)ccc12` [Example 7, 1-[4-(3-Amino-7-fluoro-1H-indazol-6-yl)phenyl]-3-(2-fluoro-5-trifluoro-methylphenyl)urea hydrochloride], the figures for the IC50 in test [1], in test [2] and in test [3] were 51 nM, 122 nM and 172 nM, respectively.

`O=C(Nc1ccc(-c2c(F)c(F)c3c(NC(=O)c4ccsc4)n[nH]c3c2F)cc1)Nc1cc(C(F)(F)F)ccc1F` [Example 9, 1-(4-{4,5,7-Trifluoro-3-[(thiophen-3-yl)carbonylamino]-1H-indazol-6-yl}-phenyl)-3-(2-fluoro-5-trifluoromethylphenyl)urea]: the figures for the IC50 in test [1], in test [2] and in test [3] were 46 nM, 693 nM and 1750 nM, respectively.

In the case of `O=C(Nc1ccc(-c2ccc3c(NC(=O)c4ccsc4)n[nH]c3c2)cc1)Nc1cc(C(F)(F)F)ccc1F` [Example 10, 1-(4-[3-[(Thiophen-3-yl)carbonylamino]-1H-indazol-6-yl}phenyl)-3-(2-fluoro-5-trifluoromethylphenyl)urea], the figures for the IC50 in test [1], in test [2] and in test [3] were 18 nM, 166 nM and 171 nM, respectively.

For the molecule `O=C(Nc1ccc(-c2ccc3c(NC(=O)c4ccsc4)n[nH]c3c2F)cc1F)Nc1cc(C(F)(F)F)ccc1F` [Example 11, 1-(4-{7-Fluoro-3-[(thiophen-3-yl)carbonylamino]-1H-indazol-6-yl}-2-fluorophenyl)-3-(2-fluoro-5-trifluoromethylphenyl)urea], the IC50 is 11 nM in test [1], 37 nM in test [2] and 185 nM in test [3].

In the case of `O=C(Nc1ccccc1)Nc1ccc(-c2ccc3c(NC(=O)c4ccsc4)n[nH]c3c2F)cc1` [Example 12, 1-(4-{7-Fluoro-3-[(thiophen-3-yl)carbonylamino]-1H-indazol-6-yl}phenyl)-3-phenylurea], the figures for the IC50 in test [1], in test [2] and in test [3] were 36 nM, 2770 nM and 14 nM, respectively.

On to `CC(C)(C)c1cc(NC(=O)Nc2ccc(-c3ccc4c(NC(=O)c5ccsc5)n[nH]c4c3F)cc2)no1` [Example 13, 1-(4-{7-Fluoro-3-[(thiophen-3-yl)carbonylamino]-1H-indazol-6-yl}phenyl)-3-(5-tert-butylisoxazol-3-yl)urea], for which the IC50 stood at 31 nM in test [1], 29 nM in test [2] and 65 nM in test [3].

In the case of `O=C(Nc1ccc(-c2ccc3c(NC(=O)c4ccsc4)n[nH]c3c2F)cc1)Nc1ccccc1F` [Example 14, 1-(4-{7-Fluoro-3-[(thiophen-3-yl)carbonylamino]-1H-indazol-6-yl}phenyl)-3-(2-fluorophenyl)urea], the IC50 in test [1] stood at 50 nM; in test [2], 4220 nM; in test [3], 23 nM.

In the case of `O=C(Nc1ccc(-c2ccc3c(NC(=O)c4ccsc4)n[nH]c3c2F)cc1)Nc1cccc(C(F)(F)F)c1` [Example 15, 1-(4-{7-Fluoro-3-[(thiophen-3-yl)carbonylamino]-1H-indazol-6-yl}phenyl)-3-(5-trifluoromethylphenyl)urea], the IC50 was 20 nM in test [1], 40 nM in test [2] and 28 nM in test [3].

For the molecule `Cc1ccc(-n2nc(C(C)(C)C)cc2NC(=O)Nc2ccc(-c3ccc4c(NC(=O)c5ccsc5)n[nH]c4c3F)cc2)cc1` [Example 16, 1-(4-{7-Fluoro-3-[(thiophen-3-yl)carbonylamino]-1H-indazol-6-yl}phenyl)-3-(5-tert-butyl-2-p-tolyl-2H-pyrazol-3-yl)urea], the IC50 in test [1] turned out to be 3 nM; in test [2] it was 19 nM; in test [3], 142 nM.

As to `Nc1n[nH]c2c(F)c(-c3ccc(NC(=O)Nc4ccccc4)cc3)ccc12` [Example 20, 1-[4-(3-Amino-7-fluoro-1H-indazol-6-yl)phenyl]-3-phenylurea], the IC50 was 502 nM in test [1] and 63 nM in test [3].

As to `O=C(Nc1ccc(-c2ccc3c(NC(=O)c4ccsc4)n[nH]c3c2F)cn1)Nc1cc(C(F)(F)F)ccc1F` [Example 24, 1-(5-{7-Fluoro-3-[(thiophen-3-yl)carbonylamino]-1H-indazol-6-yl}pyridin-2-yl)-3-(2-fluoro-5-trifluoromethylphenyl)urea], in test [1], the IC50 was 229 nM.
